These results are taken from US4166911A, “Pyridazinyl-ergoline compounds having neuroleptic activity” (Farmitalia Carlo Erba S.p.A., priority 1977, dated 1979).

Molecules are shown by their SMILES.

For the first experiment, the system named is aggregated mice.
Assay: not given
The conditions noted are these: result in words, literature; cited from earlier work.
In the case of `CN(C)CCCN1c2ccccc2Sc2ccc(Cl)cc21` [chlorpromazine], the “reduction of amphetamine toxicity in aggregated mice” value was “clearly reduce the amphetamine toxicity in aggregated mice”.

The test system of the next experiment is aggregated mice. As to the kind of experiment: protection of aggregated mice from amphetamine toxicity (death rate after 24 hours). The conditions noted are these: Mus musculus, ip.
Broadly, the ED50 is the dose that gives a 50% effect, or the effect in half of the subjects. Read a high ED50 as weaker potency. The compound `COC12C[C@@H](CNc3ccc(Cl)nn3)CN(C)[C@@H]1Cc1cn(C)c3cccc2c13` (stereo partly drawn) [355/902, 10-Methoxy-8β-(6'-chloro-3'-pyridazinylaminomethyl)-1,6-dimethyl-ergoline] displayed an ED50 of 16.4 mg/kg.

`COc1ccc(NC[C@H]2CN(C)[C@@H]3Cc4cn(C)c5cccc(c45)C3(OC)C2)nn1` (stereo partly drawn) [/903, 10-Methoxy-8β-(6'-methoxy-3'-pyridazinylaminomethyl)-1,6-dimethylergoline] had an ED50 of 30 mg/kg.

`COC12C[C@@H](CSc3ccc(O)nn3)CN(C)[C@@H]1Cc1cn(C)c3cccc2c13` (stereo partly drawn) [/914, 10-Methoxy-1,6-dimethyl-8β-(6'-hydroxy-3'-pyridazinylmercaptomethyl)ergoline] displayed a 50% effective dose (ED50) of 16.7 mg/kg.

The compound `COC12C[C@@H](CNc3cccnn3)CN(C)[C@@H]1Cc1cn(C)c3cccc2c13` (stereo partly drawn) [/904, 10-Methoxy-8β-(3'-pyridazinylaminomethyl)-1,6-dimethylergoline] returned an ED50 of 30 mg/kg.

The compound `COC12C[C@@H](CSc3cccnn3)CN(C)[C@@H]1Cc1cn(C)c3cccc2c13` (stereo partly drawn) [/927, 10-Methoxy-1,6-dimethyl-8β-(3'-pyridazinylmercaptomethyl)ergoline] had an ED50 of 30 mg/kg.
